{"source": "paper PMC6522912", "about": "“Evaluation of the published kinase inhibitor set to identify multiple inhibitors of bacterial ATP-dependent mur ligases” (Journal of Enzyme Inhibition and Medicinal Chemistry, 2019)", "key": {"E. coli MurE": {"target": "E. coli MurE (Escherichia coli, UniProt P22188)", "sequence (P22188 whole entry)": "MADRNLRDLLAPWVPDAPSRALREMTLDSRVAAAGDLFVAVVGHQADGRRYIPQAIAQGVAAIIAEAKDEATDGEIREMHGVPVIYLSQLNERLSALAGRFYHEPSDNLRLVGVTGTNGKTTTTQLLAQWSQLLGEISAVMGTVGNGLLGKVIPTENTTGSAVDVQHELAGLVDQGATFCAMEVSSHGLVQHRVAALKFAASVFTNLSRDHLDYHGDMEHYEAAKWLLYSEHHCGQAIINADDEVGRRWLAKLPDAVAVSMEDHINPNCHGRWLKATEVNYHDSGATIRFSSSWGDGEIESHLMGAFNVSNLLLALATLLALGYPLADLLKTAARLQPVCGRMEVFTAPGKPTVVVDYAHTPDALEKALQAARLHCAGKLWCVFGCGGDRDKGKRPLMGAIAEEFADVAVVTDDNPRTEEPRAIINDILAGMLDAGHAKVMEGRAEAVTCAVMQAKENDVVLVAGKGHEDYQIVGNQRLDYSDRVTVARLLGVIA", "experiment": "Malachite green inhibition assay, MurE", "assay_type": "biochemical", "procedure": "Inhibition of the Mur ligases was determined using the malachite green assay, with slight modifications.\nMurE: 50 mM Hepes, pH 8.0, 15 mM MgCl2, 0.005% Triton X-114, 60 µM meso-diaminopimelic acid, 100 µM uridine-5′-diphosphate-N-acetylmuramoyl-L-alanine-D-glutamate, 1000 µM ATP, and purified E. coli MurE[27].\nIn all cases, the final concentration of DMSO was 5% (v/v). After incubation for 15 min at 37 °C, the enzyme reaction was terminated by addition of 100 µM Biomol green reagent, and the absorbance was measured at 650 nm after 5 min. All of the experiments were run in duplicate. Residual activities were calculated with respect to control assays without the tested compounds, but with the 5% DMSO carrier.\nThe published kinase inhibitor set compounds were evaluated for inhibition of MurC, D and F ligases from E. coli using the Malachite green assay, which detects orthophosphate generated during enzymatic reactions. To avoid non-specific inhibition due to aggregate formation, all of the compounds were tested in the presence of detergent (0.005% Triton-X114). The data are presented as the residual activities of these Mur ligases in the presence of 100 µM of each test compound (Supporting Information Table S1). […]. The IC50 values against MurC, D, E and F were determined for the selected hit compounds – one representative compound from each structural class was chosen: compound 1[33], aza-stilbene derivative; compound 2[34], alkynyl pyrimidine; compound 3[35], pyrazolo [1,5]-b]pyridazine; compound 4[36], phenoxypyrimidine; compound 5[37], 4,6-bis-anilino-1H-pyrrolo[2,3-pyrimidine (Table 1). […]. […] Among the hits, compounds for further mechanistic studies were chosen on the basis of their ligand efficiency. Ligand efficiency quantifies the molecular properties, particularly size and lipophilicity and is used as a selection criterion for structurally different compounds as more ‘efficient’ ligands have the potential to control for the inflation of these properties[38] Thus ligand efficiencies were calculated for the four hits (Supporting Information Table S2)[39]^,[40], and compound 1 was selected as the most promising for additional studies. Additionally, regarding the data of profiled compounds in large panels of human kinase assays[41] […] To provide sufficient amounts of compound 1 for kinetic and NMR studies, it was resynthesized according to the synthetic procedures (Figure 2) described in the literature."}, "human kinases": {"system": "human kinases", "details": "over 200 kinase activity assays and 68 DSF assays; cited from earlier work"}}}
{"smiles": "Cc1cc(-c2ccco2)cc(C)c1/C=C/c1cncc(-c2nn[nH]n2)c1", "note": "[Compound 1]", "values": [{"measurement": "IC50", "setting": "E. coli MurE", "value": 79, "unit": "µM"}, {"measurement": "RA (%) MurE", "setting": "E. coli MurE; Table S3, aza stilbene compounds", "value": 49, "unit": "%"}, {"measurement": "MurE RA [%]", "setting": "E. coli MurE; residual activity at 100 µM compound, Table 1", "value": 49, "unit": "%"}, {"measurement": "activity at human kinases", "setting": "human kinases", "value": "no appreciable activity"}]}
